From US20260242748A1, “FORMULATION FOR CELL CRYOPRESERVATION” (ENCELL CO., LTD, priority 2023, published 2026)

What was measured:
WJ-MSCs [1] = conditions: FIG. 1
Experimental: Specifically, the umbilical cord was cut into 3-4 cm lengths, the tissue was finely chopped and treated with collagenase solution (Gibco, USA) for 60 to 90 minutes to degrade the extracellular matrix, and 0.25% trypsin (Gibco, USA) was added to further induce digestion for 30 minutes at 37° C. Then, fetal bovine serum (FBS; Biowest, USA) was added and cells were obtained by centrifugation at 1,000 g for 10 minutes, and then were cultured in a 5% CO2 environment at 37° C. using MEM Alpha (Minimum Essential Medium, Invitrogen-Gibco, Rockville, MD) medium containing 10% FBS (fetal bovine serum, Invitrogen-Gibco) and 50 μg/mL gentamicin (Invitrogen-Gibco) to obtain human umbilical cord-derived mesenchymal stem cells (WJ-MSCs), which were then used in the experiment. […] The WJ-MSCs were seeded at 1×10^4 cells in a 96-well plate and cultured for 24 hours.

WJ-MSCs [2] = conditions: glutathione at 100 μM (tested 0, 10, 50, 100 μM) after H2O2 0-100 μM; FIG. 2
Experimental: In order to determine the optimal concentration of glutathione in the cryopreservation formulation, the WJ-MSCs were treated with hydrogen peroxide (H2O2) at concentrations of 0 μM, 10 μM, 50 μM, and 100 μM, to induce stress caused by reactive oxygen species, and then further treated with glutathione at concentrations of 0 μM, 10 μM, 50 μM, and 100 μM, and cell recovery was evaluated using a CCK-8 assay.

For N[C@@H](CCC(=O)N[C@@H](CS)C(=O)NCC(=O)O)C(=O)O [glutathione], the cell viability (WJ-MSCs [1]; 1×10^4 cells in 96-well plate, cultured 24 hours, compared with acetadote, fursultiamine hydrochloride, vitamin C) was “highest”, the cell proliferation (WJ-MSCs [1]; CCK-8 assay) was “further increased” and the “cell viability (cell recovery)” value (WJ-MSCs [2]) was “highest”.
